Results reported in patent publication US10351501B2, “Gem difluorocompounds as depigmenting or lightening agents” (TFCHEM, priority 2015, dated 2019).
Each block holds one compound with its values, some of them ahead of it.

How the values were obtained:
human tyrosinase = assay: HumanLike Tyrosinase Assay kit (Feldan), L-Tyrosine to dopachrome, OD at 490 nm; assay type: biochemical; details: for OD at 490 nm: 1.12 mM
Protocol: The efficacy of compound 16 was evaluated by the inhibition of human tyrosinase in tubo and compared to the compound 11.
The assay was performed with a ready-to-use kit from Feldan Inc (Canada): the HumanLike Tyrosinase Assay kit (ref A021-a-001Kit).
The protocol was performed as described in the instructions for use of the manufacturer. Briefly, this kit is intended for the determination of human tyrosinase activity in presence of different inhibitors. The kit measures the conversion of L-Tyrosine into a dopachrome complex absorbing at 490 nm. The time course of the assay is 20 minutes, after which the results are analyzed and compared.
The compounds 11 and 16 have been tested at a final concentration of 1.12 mM.
The measured absorbances at 490 nm are reported in the table 5 and plotted in function of time in the FIG. 1.
Moreover for each compound the efficacy as tyrosinase inhibitor was calculated using the following formula: […]

[1] = Antioxidant activity by the spectrophotometric method of the free radical DPPH•; details: molar ratio antioxidant/DPPH•; absorbance at T = 30 min
Excerpt: The aim of the study was to evaluate the antioxidant activity of compound 11 by the spectrophotometric method of the free radical DPPH• (2,2-diphenyl-1-picrylhydrazyl). Indeed, antioxidants react with DPPH^• (purple), a stable free radical which is reduced to DPPH-H (yellow), and in consequence, the absorbance is decreased from the DPPH^• radical to the DPPH-H form. The degree of discoloration indicates the scavenging potential of the antioxidant compounds in terms of hydrogen donating ability (Popovici et al. Revue de génie industriel 2009, 4, 25-39).
The tested compounds were: Trolox ((±)-6-hydroxy-2,5,7,8-tetramethylchromane-2-carboxylic acid, Sigma Aldrich), as reference, and compound 11.
A stock solution of DPPH• was prepared at 200 μmol/mL in methanol and diluted in methanol in order to have a final concentration of around 150 μmol/mL to obtain a DO close to 0.9 in a plate of 96 wells. The antioxidant stock solutions were prepared at 1 mg/mL in methanol and the tested solutions were prepared from these antioxidant stock solutions as described in Table 7 below.
50 μL of each solution of antioxidant was added to the wells. Then, 200 μL of DPPH^• was added to each well.
The blank was prepared with only 250 μl of methanol and the negative control was prepared with 200 μL DPPH• and 50 μL of methanol.
The analysis was started immediately after the addition of DPPH• lasting for 2 hours (readings every 20 seconds). The absorbance was read at 515 nm. Each experiment was performed three times and had shown that the absorbance decreases while the concentration of antioxidant increased.
The activity of DPPH• is a percentage calculated as the ratio of A/An×100%.
The EC50 is expressed as a molar ratio of antioxidant (compound 11)/DPPH• (Popovici et al. Revue de génie industriel 2009, 4, 25-39). The EC50 was determined from the graph representing the percentage of DPPH• in function of the above mentioned molar ratio (moles of compound 11/moles of DPPH•).
The antioxidant activity of compound 11 was compared to that of Trolox used as a reference (considered as 100%).

[2] = In vitro human skin absorption, Franz diffusion cell: quantification in the receptor fluid (flux); assay type: in vitro ADME; details: 200 μl at 2 mg/ml in water on human skin explant; receptor fluid T0 h to T24 h
Excerpt: The aim of this study was to evaluate the absorption of compound 11 applied to excised human skin.
In vitro method using a Franz diffusion cell allows measuring the diffusion of chemicals into and across skin.
The tested compound is applied to the surface of a human skin explant separating the two chambers of a Franz diffusion cell. The compound remains on the skin for a specified time under specified conditions. The receptor fluid is sampled at time points throughout the experiment and analyzed for the tested compound. The skin may also be fractioned for separate analysis in epidermis or dermis layers.
The transcutaneous absorption was measured on human skin collected from the abdominoplasty of a single donor. At reception, the skin was defatted and cut in several fragments in order to perform Franz experiment. […]
The tested compounds were quantified, at T0 h and T24 h in the receptor solution bathing the inner surface of the skin (determination of flux), or at T24 h in the fractionated skin extracts (epidermis or dermis). […]
Sampling: 500 μL from the receptor fluid were removed at T0 h (replaced by Ringer solution) and at T24 h. These samples were analyzed by LC-MS/MS method for quantification of compound 11 and deoxyarbutin (results not shown). The quantity measured allowed to calculate a flux and to compare the absorption profile across the skin of compound 11 and deoxyarbutin.

[3] = biological target: T1, human recombinant tyrosinase (Homo sapiens, UniProt P14679); assay: Inhibition of human tyrosinase in tubo (L-DOPA substrate, OD at 477 nm), IC50; assay type: biochemical; details: Tyrosinase Concentration 300 U/mL
T1 sequence (P14679 19-529): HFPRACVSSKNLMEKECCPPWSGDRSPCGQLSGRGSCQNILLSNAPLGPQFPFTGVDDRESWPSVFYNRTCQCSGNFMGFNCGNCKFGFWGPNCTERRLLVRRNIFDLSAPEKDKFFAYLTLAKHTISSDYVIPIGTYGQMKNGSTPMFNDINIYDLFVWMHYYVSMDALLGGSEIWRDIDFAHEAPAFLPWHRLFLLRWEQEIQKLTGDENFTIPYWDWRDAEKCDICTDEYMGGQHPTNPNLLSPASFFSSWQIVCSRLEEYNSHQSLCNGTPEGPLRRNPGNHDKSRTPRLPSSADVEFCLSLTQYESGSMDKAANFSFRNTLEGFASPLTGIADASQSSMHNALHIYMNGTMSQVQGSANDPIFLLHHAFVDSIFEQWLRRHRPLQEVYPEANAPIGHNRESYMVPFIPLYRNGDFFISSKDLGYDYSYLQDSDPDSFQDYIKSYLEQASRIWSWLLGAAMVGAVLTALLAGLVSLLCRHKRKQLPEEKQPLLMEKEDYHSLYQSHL
Protocol: Substrate solution: L-DOPA (1 mg/mL) Solution B (L-DOPA 20 mg/Purified water up to 20 mL)
Preparation of Test Solutions (for IC50 Test—Examples for Deoxyarbutin)
Inhibitors solutions deoxyarbutin (1 mg/mL): Deoxyarbutin 20 mg in purified water up to 20 mL
This assay used a 96-well plate. Test solutions and controls were made several times.
The results were calculated from the OD measured at time point 20 min.
The determination of half maximal inhibitory concentration (IC50) was performed using the following formula.

[4] = In vitro stability: hydroquinone released in various chemical conditions (HPLC-UV/DAD); assay type: physicochemical
Protocol: The stability of compound 11 was evaluated by the released of hydroquinone, which is a potentially toxic compound, in different chemical conditions (extreme conditions, simulating the application of these molecules on the skin) and it was compared to the deoxyarbutin.
This study involved different tests as degradation test and chemical stability (various chemical solutions, pH and temperatures).
Analytical Method (HPLC-UV/DAD Method)
Column Atlantis dC18 150 mm*4.6 mm*3 μm Waters, 30° C. Injection 50 μl, 25° C. λ: 220 nm, 265 nm, 285 nm. A-Acetonitrile B-Water; 0.8 ml/min; elution gradient: […]
This analytical method gave linear response for compound 11, Deoxyarbutin and Hydroquinone from 25 ng/mL to 1000 ng/mL. Dilution of samples had to be taken into account for each stability study to calculate the LLOQ of each compound.
The tested compounds are incubated in different solutions, at different times (see table 1). Then the analytical method was used to quantify remaining compounds and potential hydroquinone released (as possible degradation of compounds).
Hydroquinone (HQ) apparition is expressed as a percentage of initial compound 11 or Deoxyarbutin. The calculation was done in molar units and the limit of quantification fluctuates with the initial concentration.

- OD at 490 nm (human tyrosinase; time 0 min): 0.0000
- OD at 490 nm (human tyrosinase; time 1 min): 0.0105
- OD at 490 nm (human tyrosinase; time 2 min): 0.0185
- OD at 490 nm (human tyrosinase; time 3 min): 0.0285
- OD at 490 nm (human tyrosinase; time 4 min): 0.0385
- OD at 490 nm (human tyrosinase; time 5 min): 0.0505
- OD at 490 nm (human tyrosinase; time 6 min): 0.0605
- OD at 490 nm (human tyrosinase; time 7 min): 0.0720
- OD at 490 nm (human tyrosinase; time 8 min): 0.0815
- OD at 490 nm (human tyrosinase; time 9 min): 0.0925
- OD at 490 nm (human tyrosinase; time 10 min): 0.1025
- OD at 490 nm (human tyrosinase; time 11 min): 0.1125
- OD at 490 nm (human tyrosinase; time 12 min): 0.1225
- OD at 490 nm (human tyrosinase; time 13 min): 0.1330
- OD at 490 nm (human tyrosinase; time 14 min): 0.1435
- OD at 490 nm (human tyrosinase; time 15 min): 0.1545
- OD at 490 nm (human tyrosinase; time 16 min): 0.1650
- OD at 490 nm (human tyrosinase; time 17 min): 0.1765
- OD at 490 nm (human tyrosinase; time 18 min): 0.1885
- OD at 490 nm (human tyrosinase; time 19 min): 0.2000
- OD at 490 nm (human tyrosinase; time 20 min): 0.2115
- Inhibitor efficacy (%) (human tyrosinase; Compound at 1.12 mM, T = 20 min): 13.7%
SMILES: Oc1ccc(OC2CC(O)CCC2(F)F)cc1 (stereo not shown) [Compound 16]

- EC50 (Ratio antioxidant/DPPH•) Mean [1]: 0.240
SMILES: Cc1c(C)c2c(c(C)c1O)CCC(C)(C(=O)O)O2 (racemic) [Trolox, (±)-6-hydroxy-2,5,7,8-tetramethylchromane-2-carboxylic acid, reference compound]

- Flux, mean (n = 3) [2]: 3.98 μg/h/cm^2
- Calculated IC50 Mean ([3]; mean of 4 tests): 53 µg/mL
- IC50 ([3]; read-out: IC50): 272 µM
- Calculated IC50 Test #1 ([3]; time 20 min): 26 µg/mL
- Calculated IC50 Test #2 ([3]; time 20 min): 45 µg/mL
- Calculated IC50 Test #3 ([3]; time 20 min): 80 µg/mL
- Calculated IC50 Test #4 ([3]; time 20 min): 60 µg/mL
- % Hydroquinone released ([4]; Ringer's solution pH 5.5 at 70° C., 24 H): 11.83%
- % Hydroquinone released ([4]; Ringer's solution pH 8.5 at 70° C., 24 H): 88.76%
- % Hydroquinone released ([4]; Synthetic perspiration at RT, 48 H): 128.61%
- % Hydroquinone released ([4]; Water at room temperature, 14 Days): 4.20%
SMILES: Oc1ccc(OC2CCCCO2)cc1 (stereo not shown) [Deoxyarbutin, reference compound]
